This experiment has as its system T1, Horseradish peroxidase (HRP); soluble-HRP.
T1 construct: gene PRXC1A; class III plant peroxidase
Put plainly: peroxidase assay, absorbance at […] nm, Lineweaver-Burk plot. Type of experiment: biochemical, Armoracia rusticana. The following applies: free soluble enzyme; co-substrate H2O2 (8 mM in the standard assay); 20 mM sodium acetate pH 5.5; temperature not stated.

A word on the Km: it is the concentration of substrate that gives half-maximal velocity.

Turning to `COc1ccccc1O` [guaiacol], the Km was 35.7 mM.

For the origin of these results see paper PMC10791668, “Development of chia gum/alginate-polymer support for horseradish peroxidase immobilization and its application in phenolic removal” (Scientific Reports, 2024).
